Experimental findings from ChEMBL document CHEMBL1201862, “PubChem BioAssay data set” (2004) are described below.

SMILES strings stand for the structures.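 Following 48 hours of exposure in 96-well plates, responses at five concentrations were used to interpolate endpoints linearly. At the GI50, growth is halved.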 Activity calls are given as the source filed them. Cut-off read from the data, not from the text of the source: active = GI50 up to about 1.1 µM and inactive = higher.

What all share (experiment): growth of human tumour cells (NCI), 48 h
Test [1] deals with NCI-H23.
Test [2] concerns HCT-116.
Test [3] concerns SF-295.
Test [4] relates to SK-MEL-28.
The subject of test [5] is LOX IMVI.
Test [6] has as its system RPMI-8226.
Test [7] concerns EKVX.
Test [8] relates to CCRF-CEM.
In test [9] the test system is SF-268.
Test [10] has as its system SK-MEL-5.
The test system of test [11] is OVCAR-4.
The subject of test [12] is 786-0.
Test [13] relates to KM12.
In test [14] the test system is Malme-3M.
Test [15] relates to HCT-15.
The test system of test [16] is SR.
In test [17] the test system is NCI-H460.
Test [18] relates to UO-31.
Test [19] has as its system A498.

As to `Nc1ccc(S(=O)(=O)Nc2nc3ccccc3nc2N2CCCCC2)cc1`, the GI50 in test [1] is 36.1 µM (inactive); in [2] it was 80.7 µM (inactive); in test [3], 71.4 µM (inactive); in [4], 92.9 µM (inactive); in test [5] it was > 100 µM (inactive); in test [6], 58.9 µM (inactive). The GI50 in test [7] was > 100 µM (inactive); in test [8], 48.5 µM (inactive); in test [9] it was > 100 µM (inactive); in test [10] it was 91 µM (inactive); in test [11] it was 24.2 µM (inactive); in test [12], > 100 µM (inactive). Also, the GI50 was 70.1 µM (inactive) in test [13]; 71.9 µM (inactive) in test [14]; 78.7 µM in [15]; 60.5 µM (inactive) in [16]; 79.3 µM (inactive) in test [17]; 11.3 µM (inactive) in test [18].

On to `O=c1c(C(c2cccnc2)c2c(O)oc3cc(O)ccc3c2=O)c(O)oc2cc(O)ccc12`, for which the GI50 in test [1], in [2], in [3], in test [4], in test [5] and in test [6] was > 100 µM (inactive) in each case. In addition, the GI50 in [7], in [9], in test [10], in test [12], in [13] and in test [19] was > 100 µM (inactive) throughout. The GI50 in test [15] is > 100 µM; in test [16], > 100 µM (inactive); in test [17], > 100 µM (inactive); in test [18] it was > 100 µM (inactive).

As to `O=S(=O)(N=[Se](=O)(c1ccccc1)c1ccccc1)c1ccccc1`, the GI50 in test [1], in [2], in [3], in [4], in [5] and in test [6] was > 100 µM (inactive) in each case. The GI50 in [7], in test [8], in [9], in [10], in test [11] and in test [12] was > 100 µM (inactive) throughout. Moreover, the GI50 in test [13] is > 100 µM (inactive); in test [19], > 100 µM (inactive); in [15], > 100 µM; in [16], > 100 µM (inactive); in test [17], > 100 µM (inactive); in test [18] it was 58.1 µM (inactive).

As for `O=C1c2ccsc2-c2cccc3cccc1c23.O=C1c2sccc2-c2cccc3cccc1c23`, the GI50 was 2.78 µM (inactive) in [2]; 8.79 µM (inactive) in test [3]; 21.1 µM (inactive) in [4]; 3.72 µM (inactive) in test [5]; 0.0359 µM (active) in [6]; 0.0132 µM (active) in test [7]. In addition, the GI50 is 0.692 µM (active) in [8]; 7.89 µM (inactive) in test [9]; 11 µM (inactive) in test [11]; 5.89 µM (inactive) in test [12]; 3.52 µM (inactive) in test [13]; 0.353 µM (active) in test [14]. The GI50 in [15] was 3.18 µM; in test [16] it was 0.203 µM (active); in [17], 4.94 µM (inactive); in [18] it was 4.67 µM (inactive).

Consider `CC(C)(C)OC(=O)C1C(=O)NC(=O)CC1C(COCc1ccccc1)OCc1ccccc1` (configuration not stated), for which the GI50 in test [1] is 32.6 µM (inactive); in test [2] it was 18.6 µM (inactive); in test [3], 20.5 µM (inactive); in test [4], 18.1 µM (inactive); in [5], 19.2 µM (inactive); in test [6], 20 µM (inactive). Further, the GI50 is 25.3 µM (inactive) in [7]; 25.5 µM (inactive) in [8]; 26.7 µM (inactive) in test [9]; 17.3 µM (inactive) in test [10]; 24.3 µM (inactive) in test [12]; 17.8 µM (inactive) in test [13]. For the same molecule, the GI50 is 19.8 µM (inactive) in test [14], 21.6 µM in test [15], 18 µM (inactive) in test [16] and 27.1 µM (inactive) in [18].

`[N-]=[N+]=NI1OC(=O)c2ccccc21`: the GI50 in [1] was > 100 µM (inactive); in test [2], > 100 µM (inactive); in test [3], > 100 µM (inactive); in test [4] it was 47.2 µM (inactive); in test [5] it was 90.2 µM (inactive); in [6] it was 24 µM (inactive). The GI50 in test [7] was > 100 µM (inactive); in test [8], 37.9 µM (inactive); in test [9] it was 73.6 µM (inactive); in test [11] it was > 100 µM (inactive); in [12], > 100 µM (inactive); in [13] it was > 100 µM (inactive). Further, the GI50 in test [19] was > 100 µM (inactive); in test [15], 50.7 µM; in test [16] it was 38.7 µM (inactive); in test [18] it was > 100 µM (inactive).

On to `COCC1OC(OC2OCC3OC4(OCC(O)(C(C)OC)C5OCOC54)OC3C2OC)C(OC)C(O)C1OC1OC(C)C(OC)C(OC2OC(C)C3OC4(CC(O)C(OC5CC(OC6CC(C)([N+](=O)[O-])C(OC)C(C)O6)C(OC(=O)c6c(C)c(Cl)c(O)c(Cl)c6OC)C(C)O5)C(C)O4)OC3(C)C2O)C1O` (configuration not stated), for which the GI50 in test [1], in [2], in test [3], in test [4], in [5] and in [6] was > 100 µM (inactive) in each case. In addition, the GI50 in test [7], in test [8], in [9], in test [10], in [11] and in test [12] was > 100 µM (inactive) each time. Further, the GI50 in test [13] is > 100 µM (inactive); in test [19], > 100 µM (inactive); in test [15], > 100 µM; in test [16], > 100 µM (inactive); in test [17] it was > 100 µM (inactive); in test [18], > 100 µM (inactive).

As to `Cc1nn(C(=O)c2ccc(Cl)cc2)c2c1C(c1ccc(O)cc1)SC(=N)N2` (configuration not stated), the GI50 in test [1], in test [2], in test [3], in test [4], in test [5] and in [6] was > 10 µM (inactive) in each case. In addition, the GI50 in [7], in test [8], in test [9], in test [10], in test [11] and in test [12] was > 10 µM (inactive) throughout. Also, the GI50 was > 10 µM (inactive) in [13]; > 10 µM (inactive) in test [14]; > 10 µM in test [15]; > 10 µM (inactive) in test [16]; > 10 µM (inactive) in test [17].

`CC1=C(/C=C/C(C)=C/C=C/C(C)=C/CO)C(C)(C)CCC1` [RETINOL]: the GI50 in [1] is 21.8 µM (inactive); in test [3], 24.2 µM (inactive); in test [4], 25.5 µM (inactive); in [5], 24.6 µM (inactive); in test [7], 27.1 µM (inactive); in [8] it was 22.3 µM (inactive). Besides, the GI50 in test [9] is 28.6 µM (inactive); in test [10], 17.1 µM (inactive); in test [11], 37.7 µM (inactive); in [12], 17.2 µM (inactive); in [13] it was 36.1 µM (inactive); in test [14], 11.1 µM (inactive). The GI50 in [19] is 18.3 µM (inactive); in [15] it was 30.6 µM; in test [16] it was 18.1 µM (inactive); in test [17], 30.5 µM (inactive); in test [18], 17.7 µM (inactive).

Take `CS(=O)(=O)N(N(CCCl)S(=O)(=O)c1ccccc1)S(C)(=O)=O`: the GI50 in test [1] is > 100 µM (inactive); in test [2], > 100 µM (inactive); in test [3] it was 88.9 µM (inactive); in test [4], > 100 µM (inactive); in test [6], > 100 µM (inactive); in test [7], > 100 µM (inactive). The GI50 in test [8] is > 100 µM (inactive); in [9] it was 21.3 µM (inactive); in test [10], 52.7 µM (inactive); in test [11], > 100 µM (inactive); in test [12], 44.7 µM (inactive); in test [13], > 100 µM (inactive). Moreover, the GI50 in [14] was > 100 µM (inactive); in test [15], > 100 µM; in test [16], > 100 µM (inactive); in [17], 86.1 µM (inactive); in test [18], 76.7 µM (inactive).

For `COC1CCC(O)C(/C=C/[N+](=O)[O-])C1` (configuration not stated), the GI50 is 3.91 µM (inactive) in [1]; 1.93 µM (inactive) in test [2]; 10.6 µM (inactive) in test [3]; 13.4 µM (inactive) in test [4]; 1.54 µM (inactive) in test [5]; 1.55 µM (inactive) in test [6]. The GI50 in test [7] was 4.56 µM (inactive); in [8], 2.69 µM (inactive); in [9], 3.37 µM (inactive); in test [10] it was 4.06 µM (inactive); in test [11], 14.8 µM (inactive); in test [12] it was 1.7 µM (inactive). In addition, the GI50 is 4.14 µM (inactive) in test [13]; 3.99 µM (inactive) in test [19]; 1.82 µM in test [15]; 1.59 µM (inactive) in test [16]; 2.62 µM (inactive) in [17]; 1.81 µM (inactive) in test [18].
